Experimental data as given in US4333938A, “Imino derivatives of 5-aminobenzodioxole-1,3 which are useful as medicaments” (Laboratoires Sarget, priority 1979, dated 1982).
Values joined by “and” are separate entries in the source; they are usually repeats but may differ in a detail not shown here. Identical values can stand only once.

How the values were obtained:
[1] = system: carrageenan-induced granulomas; test: activity on carrageenan-induced granulomas; assay type: in vivo, Male Wistar rats
Protocol: Male Wistar rats weighing 130 to 150 grams were given a subcutaneous injection in the central part of the skin of the back of 0.5 ml of an aqueous suspension of carrageenan. Two doses of the test substance are administered, one 30 minutes before and the other 6 hours after carrageenan. At the end of 24 hours the rats were sacrificed and the granulomas were removed and weighed before and after drying for 24 hours at 50° C. The difference in weight of the granulomas wet and dry represents the exudate
These AD50 are respectively 175(142-215) and 175(150-205) mg/kg.

cotton pellet granulomas = test: inhibition of cotton pellet granulomas; assay type: in vivo, male Sprague-Dawley rats; settings: oral, daily for 10 days, dose 150
Protocol: Two cotton pellets weighing 70 mg were implanted under the back skin of male Sprague-Dawley rats anesthetized with ether. Starting the next day, the compound was administered orally daily for 10 days. The rats were sacrificed and the pellets were removed and weighed before and after drying at 50° C. for 24 hours. The weights used were those obtained after deduction of the weight of the implants. The average of the quantities so calculated was determined for each group and compared to the averages of the control group.

solubility in water = assay type: physicochemical
phenylbenzoquinone (PBQ) = test: analgesic activity, phenylbenzoquinone (PBQ) challenge; assay type: in vivo; settings: male Swiss mouse, oral
Protocol: The analgesic activity was determined in the male Swiss mouse using phenylbenzoquinone (PBQ) as the challenging agent (variation of the method of Siegmund et al, Proc. Soc. Exp. Biol. Med. […], 95, 729-31). […] The ED50 was determined by the method of Lichfield and Wilcoxon.

carageenan-induced edema = test: inhibition of carrageenan-induced edema; assay type: in vivo, male Wistar rat; settings: oral
Protocol: The inflammation is produced in the male Wistar rat by injection of 0.1 ml of a 0.5% suspension of carageenan in physiological serum, into the muscular fascia of the metatarsal region of the hind foot of the animal. The test substance is administered orally at the same time as the carageenan or 30 or 60 min before carageenan. The edema is measured by plethysmometry three hours after the adminstration of the carrageenan.

[2] = oral toxicity (mortality) in the mouse; settings: in vivo, Swiss mice
Protocol: (§1) The percentages of mortality produced by the compounds of this invention when administered orally to Swiss mice are shown in Table 1. The animals, free from specific pathogenic organisms were housed in an air conditioned room for 24 to 48 hours before the start of the experiment. They were separated into groups of 5 males and 5 females. The materials were administered to animals which had been fasted for 24 hours by means of a gastric tube in suspension in a 6% thickened julep using a volume equivalent to 0.1 ml per 10 g of body weight. […] They remained under observation for two weeks before being sacrificed and autopsied.

Wistar rat = test: oral toxicity (mortality) in the Wistar rat; assay type: in vivo; settings: 2000 mg/kg
Protocol: as §1
The toxicities of the compounds of Examples 2 and 3 were determined in the Wistar rat. The protocol which was followed was the same as that described for the mice, except that the compounds were administered in a volume equivalent to 0.5 ml per 100 g of body weight of rat. […] The product of Example 3 produced no mortality at 2000 mg/kg and 20% mortality at 3000 mg/kg.

[3] = system: edema produced by serotonin; test: inhibition of serotonin-induced edema; assay type: in vivo, Wistar rat; settings: oral, 30 minutes before serotonin
Protocol: In the Wistar rat inflammation is induced by intrapedal injection of 0.1 ml of a 0.02% solution of serotonin in physiological serum. The test substance is administered orally 30 minutes before the serotonin and the edema is measured by plethysmometry one hour after its release.

stomachs = test: ulcerogenic activity; assay type: in vivo, female Wistar rat; settings: 150 mg/kg daily
Protocol: The ulcerogenic activity was determined in the female Wistar rat using a variation of the procedure described by J. M. Lwoff, J. Pharmacol. 1971, 3, 1, 81-3. The test substance was administered daily for 3 days to the animals maintained on a aqueous diet. The stomachs were removed after 1, 2, and 3 days of treatment and the ulcerations were classified from 0 to 4. The ulceration index is calculated for each group of animals as the product (average of the classes x the percentage of animals afflicted), while distinguishing acute ulcerations from ulcers which were in the process of healing.

C(=Nc1ccc2c(c1)OCO2)c1cccnc1 [Example 3, N-(3-pyridylidene)-5-aminobenzodioxole-1,3]
Exudate, % activity ([1]; 100 mg/kg administered twice): 15% and 25% | Exudate, % animals 30% protected ([1]; 100 mg/kg administered twice): 25% and 37% | Weight of dry granuloma, % activity ([1]; 100 mg/kg administered twice): 12% and 22% | Weight of wet granuloma, % activity ([1]; 100 mg/kg administered twice): 15% and 25% | Weight of wet granuloma, % animals 30% protected ([1]; 100 mg/kg administered twice): 25% and 37% | Exudate, % activity ([1]; 200 mg/kg administered twice): 27% and 34% and 38% | Weight of dry granuloma, % activity ([1]; 200 mg/kg administered twice): 27% and 32% and 33% | Weight of wet granuloma, % activity ([1]; 200 mg/kg administered twice): 27% and 33% and 34% | Exudate, % activity ([1]; 250 mg/kg administered twice): 36% | Exudate, % animals 30% protected ([1]; 250 mg/kg administered twice): 75% | Weight of dry granuloma, % activity ([1]; 250 mg/kg administered twice): 33% | Weight of dry granuloma, % animals 30% protected ([1]; 250 mg/kg administered twice): 62% | Weight of wet granuloma, % activity ([1]; 250 mg/kg administered twice): 36% | Weight of wet granuloma, % animals 30% protected ([1]; 250 mg/kg administered twice): 75% | Exudate, % activity ([1]; 300 mg/kg administered twice): 35% and 43% | Exudate, % animals 30% protected ([1]; 300 mg/kg administered twice): 87% and 75% | Weight of dry granuloma, % activity ([1]; 300 mg/kg administered twice): 37% and 41% | Weight of dry granuloma, % animals 30% protected ([1]; 300 mg/kg administered twice): 62% and 75% | Weight of wet granuloma, % activity ([1]; 300 mg/kg administered twice): 35% and 43% | Weight of wet granuloma, % animals 30% protected ([1]; 300 mg/kg administered twice): 87% and 75% | ED50 ([1]; Rattus norvegicus, 24 h, dose which protects 50% of the animals to the extent of 30% with respect to wet weight of the granuloma, read-out: AD50 (the source's name)): 175 mg/kg | % inhibition with respect to dry pellets (cotton pellet granulomas): 5% | % inhibition with respect to wet pellets (cotton pellet granulomas): 0% | solubility in water (solubility in water): insoluble in water | % analgesic activity (phenylbenzoquinone (PBQ); 50 mg/kg): 23% | % analgesic activity (phenylbenzoquinone (PBQ); 100 mg/kg): 44% | % analgesic activity (phenylbenzoquinone (PBQ); 200 mg/kg): 65% | % analgesic activity (phenylbenzoquinone (PBQ); 300 mg/kg): 92% | ED50 (phenylbenzoquinone (PBQ); method of Lichfield and Wilcoxon): 110 mg/kg | % inhibiting activity on carrageenan-induced edema (carageenan-induced edema; To - 30 (30 min before carrageenan), 25 mg/kg): 34% | % inhibiting activity on carrageenan-induced edema (carageenan-induced edema; To - 30, 50 mg/kg): 41% and 38% | % inhibiting activity on carrageenan-induced edema (carageenan-induced edema; To - 30, 75 mg/kg): 44% | % inhibiting activity on carrageenan-induced edema (carageenan-induced edema; To - 30, 100 mg/kg): 50% and 41% | % inhibiting activity on carrageenan-induced edema (carageenan-induced edema; To - 30, 150 mg/kg): 53% | % inhibiting activity on carrageenan-induced edema (carageenan-induced edema; To - 30, 200 mg/kg): 66% | % inhibiting activity on carrageenan-induced edema (carageenan-induced edema; To - 30, 400 mg/kg): 67% and 72% | % inhibiting activity on carrageenan-induced edema (carageenan-induced edema; To - 60 (60 min before carrageenan), 25 mg/kg): 25% | % inhibiting activity on carrageenan-induced edema (carageenan-induced edema; To - 60, 50 mg/kg): 42% | % inhibiting activity on carrageenan-induced edema (carageenan-induced edema; To - 60, 75 mg/kg): 40% | % inhibiting activity on carrageenan-induced edema (carageenan-induced edema; To - 60, 100 mg/kg): 39% | % inhibiting activity on carrageenan-induced edema (carageenan-induced edema; To - 60, 200 mg/kg): 58% | % inhibiting activity on carrageenan-induced edema (carageenan-induced edema; To - 60, 400 mg/kg): 69% | % inhibiting activity on carrageenan-induced edema (carageenan-induced edema; at To, 100 mg/kg): 57% and 29% | % inhibiting activity on carrageenan-induced edema (carageenan-induced edema; at To, 200 mg/kg): 28% and 36% | % inhibiting activity on carrageenan-induced edema (carageenan-induced edema; at To, 400 mg/kg): 55% and 39% | mortality at 336 h ([2]; 500 mg/kg): 0% | mortality at 336 h ([2]; 1000 mg/kg): 10% | mortality at 336 h ([2]; 2000 mg/kg): 100% | mortality (in words) (Wistar rat): no mortality | % inhibitory activity on serotonin edema ([3]; 100 mg/kg): 27% | % inhibitory activity on serotonin edema ([3]; 200 mg/kg): 21% | % inhibitory activity on serotonin edema ([3]; 400 mg/kg): 26% | Ulceration Index, acute (stomachs; Day 1): 6 | Ulceration Index, healing (stomachs; Day 1): 0 | Ulceration Index, acute (stomachs; Day 2): 20 | Ulceration Index, healing (stomachs; Day 2): 6 | Ulceration Index, acute (stomachs; Day 3): 33 | Ulceration Index, healing (stomachs; Day 3): 12
